{"source": "patent US20090011400A1", "about": "“Substrate switched ammonia lyases and mutases” (The Salk Institute for Biological Studies and The Regents …, priority 2006, published 2009)", "molecules": {"B1": {"name": "Rhodobacter sphaeroides tyrosine ammonia lyase (RsTAL) variant H89F (His89Phe) (Cereibacter sphaeroides 2.4.1; H89F) (protein)", "chain": "MLAMSPPKPAVELDRHIDLDQAHAVASGGARIVLAPPARDRCRASEARLGAVIREARHVYGLTTGFGPLANRLISGENVRTLQANLVHFLASGVGPVLDWTTARAMVLARLVSIAQGASGASEGTIARLIDLLNSELAPAVPSRGTVGASGDLTPLAHMVLCLQGRGDFLDRDGTRLDGAEGLRRGRLQPLDLSHRDALALVNGTSAMTGIALVNAHACRHLGNWAVALTALLAECLRGRTEAWAAALSDLRPHPGQKDAAARLRARVDGSARVVRHVIAERRLDAGDIGTEPEAGQDAYSLRCAPQVLGAGFDTLAWHDRVLTIELNAVTDNPVFPPDGSVPALHGGNFMGQHVALTSDALATAVTVLAGLAERQIARLTDERLNRGLPPFLHRGPAGLNSGFMGAQVTATALLAEMRATGPASIHSISTNAANQDVVSLGTIAARLCREKIDRWAEILAILALCLAQAAELRCGSGLDGVSPAGKKLVQALREQFPPLETDRPLGQEIAALATHLLQQSPV"}, "B2": {"name": "Rhodobacter sphaeroides tyrosine ammonia lyase (RsTAL), wild type (Cereibacter sphaeroides 2.4.1) (protein)", "chain": "B1 chain with F89H", "notes": "octahistidine (His8), thrombin-cleavable (N, cleaved yes); made in house; host or cells: E. coli BL21(DE3)"}, "B3": {"name": "H89F RsTAL: engineered RsTAL variant with the single amino acid substitution H89F (His 89 replaced by Phe) (protein)", "chain": "B1 chain", "modifications": "H89F mutant of Rhodobacter sphaeroides tyrosine ammonia lyase"}}, "key": {"[1]": {"target": "T1, Rhodobacter sphaeroides tyrosine ammonia lyase (RsTAL), wild type (Cereibacter sphaeroides, UniProt Q3IWB0)", "T1 construct": "octahistidine (His8), thrombin-cleavable (N, cleaved yes); made in house; host or cells: E. coli BL21(DE3)", "T1 sequence (Q3IWB0 1-523)": "B1 chain with F89H", "test": "Ammonia lyase steady-state kinetics, wild type RsTAL", "assay_type": "biochemical", "settings": "wt RsTAL", "description": "(§1) TAL activity was measured spectrophotometrically by monitoring the formation of a conjugated aryl-acid product. The conversion of L-Tyr to p-coumarate was followed at 310 nm and L-Phe to cinnamate at 280 nm. The assay mixture (total volume 0.5 ml) contained 0.1 M Tris HCl (pH 8.5), and for each fixed amount of TAL, eight different initial concentrations of amino acid substrate. After pre-incubation of the enzyme at 37° C. for 2 min, reactions were initiated by the addition of substrate, and formation of product was monitored for 5 min. For wild type RsTAL, activity was assayed with 7.5 μg protein and initial L-Tyr concentrations between 0.01 and 2.4 mM, and PAL activity was assayed with 30 μg protein and initial L-Phe concentrations between 3.2 and 51.2 mM. For the RsTAL H89F mutant, PAL activity was assayed with 10 μg protein and initial L-Phe concentrations between 0.05 and 5.2 mM. Each series of assays were performed in triplicate, and a Hanes plot was used for the estimation of steady-state kinetic constants."}, "[2]": {"system": "PcPAL (Petroselinum crispum phenylalanine ammonia lyase)", "settings": "cited from earlier work"}, "[3]": {"system": "PlPAL (Photorhabdus luminescens phenylalanine ammonia lyase)", "settings": "cited from earlier work"}, "[4]": {"system": "ZmPAL (Z. mays phenylalanine ammonia lyase)", "settings": "cited from earlier work"}, "[5]": {"system": "RcTAL (Rhodobacter capsulatus tyrosine ammonia lyase)", "settings": "cited from earlier work"}, "[6]": {"system": "SeTAL (Saccharothrix espanaensis tyrosine ammonia lyase)", "settings": "cited from earlier work"}, "[7]": {"target": "T2, Rhodobacter sphaeroides tyrosine ammonia lyase (RsTAL) variant H89F (His89Phe) (Cereibacter sphaeroides, UniProt Q3IWB0, H89F)", "T2 sequence (Q3IWB0 1-523 H89F)": "B1 chain", "test": "Ammonia lyase steady-state kinetics, H89F RsTAL", "quoted_text": "(§3) TAL activity was measured spectrophotometrically by monitoring the formation of a conjugated aryl-acid product. The conversion of L-Tyr to p-coumarate was followed at 310 nm and L-Phe to cinnamate at 280 nm. The assay mixture (total volume 0.5 ml) contained 0.1 M Tris HCl (pH 8.5), and for each fixed amount of TAL, eight different initial concentrations of amino acid substrate. After pre-incubation of the enzyme at 37° C. for 2 min, reactions were initiated by the addition of substrate, and formation of product was monitored for 5 min. […] For the RsTAL H89F mutant, PAL activity was assayed with 10 μg protein and initial L-Phe concentrations between 0.05 and 5.2 mM. Each series of assays were performed in triplicate, and a Hanes plot was used for the estimation of steady-state kinetic constants."}, "[8]": {"system": "SmPAL (Streptomyces maritimus phenylalanine ammonia lyase)", "settings": "cited from earlier work"}, "RsTAL": {"target": "T3, RsTAL (Cereibacter sphaeroides, UniProt Q3IWB0)", "T3 construct": "His8 (octahistidine), thrombin-cleavable (N, cleaved yes); made in house; host or cells: E. coli BL21(DE3)", "T3 sequence (Q3IWB0 1-523)": "B1 chain with F89H", "test": "Crystal soaking experiments of RsTAL with ligands", "assay_type": "binding, Rhodobacter sphaeroides", "settings": "wild type RsTAL crystals soaked with ligand", "description": "Monoclinic crystals of RsTAL (space group […]) were grown from a 1:1 mixture of protein solution (20 mg/ml in 12.5 mM Tris-HCl, pH 7.5, 50 mM NaCl) and a reservoir solution (0.1 M MOPSO—Na^+, pH 7.0, 7% (w/v) polyethylene glycol 8000, 0.3 M ammonium acetate, 2 mM dithiothreitol, 35 mM cyclohexylbutanoyl-N-hydroxyethylglucamide) using vapor diffusion against reservoir solutions at 4° C. Crystal growth typically occurred over a period of one to three weeks and was expedited through microseeding. […] Crystals of RsTAL in complex with small molecule ligands were produced by soaking crystals for 24-48 hrs in reservoir solutions supplemented with 10-20 mM coumaric acid, caffeic acid, cinnamic acid or AIP."}, "wild type RsTAL": {"target": "T4, wild type RsTAL (Cereibacter sphaeroides, UniProt Q3IWB0)", "T4 construct": "only residues 1 to 7 and the C-terminal residue 523 of each of the eight RsTAL monomers are poorly ordered; His8 (octahistidine), thrombin-cleavable (N, cleaved yes); made in house; host or cells: E. coli BL21(DE3)", "T4 sequence (Q3IWB0 1-523)": "B1 chain with F89H", "test": "Inhibition of enzyme activity by AIP, wild type RsTAL", "assay_type": "biochemical, Rhodobacter sphaeroides", "description": "(§2) The inhibition of enzyme activity by AIP was measured with a similar assay system, except that the enzyme was pre-incubated for 7 min in the presence of fixed concentrations of AIP. Inhibition of PAL activity of wild type RsTAL was measured with 15 μg protein, six AIP concentrations between 0 and 20 μM, and initial L-Phe concentrations between 9.6 and 25.6 mM. Inhibition of PAL activity of the H89F mutant was measured with 10 μg protein, five AIP concentrations between 0 and 5 μM, with initial L-Phe concentrations between 0.4 and 1.6 mM. Duplicate sets of enzyme assays were performed and a Dixon plot was used for the estimation of the AIP inhibition constant, Ki. AIP was a gift from Dr. Jerzy Zon, Wroclaw University, Poland."}, "H89F RsTAL": {"target": "T5, H89F RsTAL (Cereibacter sphaeroides, UniProt Q3IWB0, H89F)", "T5 construct": "mutant proteins were expressed and purified as described for wild type RsTAL; His8 (octahistidine), thrombin-cleavable (N, cleaved yes); made in house; host or cells: E. coli BL21(DE3)", "T5 sequence (Q3IWB0 1-523 H89F)": "B1 chain", "test": "Inhibition of PAL activity by AIP, H89F RsTAL", "assay_type": "biochemical, Rhodobacter sphaeroides", "description": "as §2"}, "[9]": {"target": "T2, Rhodobacter sphaeroides tyrosine ammonia lyase (RsTAL) variant H89F (His89Phe)", "test": "Inhibition of PAL activity of H89F RsTAL by AIP", "assay_type": "biochemical", "parameters": "mutant proteins were expressed and purified as described for wild type RsTAL; octahistidine (His8), thrombin-cleavable (N, cleaved yes); made in house; host or cells: E. coli BL21(DE3)", "description": "as §2"}, "PcPAL": {"target": "PcPAL (Petroselinum crispum, UniProt P24481)", "settings": "substrate L-Phe, read-out: AIP Ki; cited from earlier work"}, "SmPAL": {"target": "SmPAL", "settings": "substrate L-Phe, read-out: AIP Ki; cited from earlier work"}, "[10]": {"substrate": "N[C@@H](Cc1ccccc1)C(=O)O", "test": "purified protein, by the assay type", "settings": "other: H89F RsTAL, pH 8.5, 37° C.", "quoted_text": "as §3"}, "[11]": {"substrate": "N[C@@H](Cc1ccc(O)cc1)C(=O)O", "test": "Ammonia lyase steady-state kinetics, wild type RsTAL", "assay_type": "biochemical, Rhodobacter sphaeroides", "settings": "other: wt RsTAL, pH 8.5, 37° C.", "description": "as §1"}, "[12]": {"substrate": "N[C@@H](Cc1ccccc1)C(=O)O", "test": "Ammonia lyase steady-state kinetics, wild type RsTAL", "assay_type": "biochemical, Rhodobacter sphaeroides", "settings": "other: wt RsTAL, pH 8.5, 37° C.", "description": "as §1"}, "[13]": {"test": "PAL activity: spectrophotometric steady-state kinetics, L-Phe to cinnamate", "assay_type": "biochemical", "settings": "substrate L-Phe", "description": "as §1"}}, "note": "Where a chain is given by its changes, count along the chain named. Names and notes keep the numbering of the source."}
{"molecule": "N[C@@H](Cc1ccc(O)c(O)c1)C(=O)O", "note": "[L-DOPA, L-3,4-dihydroxyphenylalanine]", "values": [{"measurement": "activity with L-DOPA", "setting": "[1]; deamination", "value": "significant activity"}]}
{"molecule": "N[C@@H](Cc1ccccc1)C(=O)O", "note": "[L-Phe]", "values": [{"measurement": "Km", "setting": "[2]", "value": 17.2, "unit": "µM"}, {"measurement": "kcat", "setting": "[2]", "value": 22, "unit": "s⁻¹"}, {"measurement": "Km", "setting": "[3]", "value": 320, "unit": "µM"}, {"measurement": "kcat", "setting": "[3]", "value": 0.8, "unit": "s⁻¹"}, {"measurement": "Km", "setting": "[4]", "value": 270, "unit": "µM"}, {"measurement": "kcat", "setting": "[4]", "value": 10, "unit": "s⁻¹"}, {"measurement": "Km", "setting": "[5]", "value": 1280, "unit": "µM"}, {"measurement": "kcat", "setting": "[5]", "value": 15.1, "unit": "s⁻¹"}, {"measurement": "Km", "setting": "[6]", "value": 2860, "unit": "µM"}, {"measurement": "kcat", "setting": "[6]", "value": 0.0038, "unit": "s⁻¹"}, {"measurement": "kcat", "setting": "[7]; pH 8.5, 37° C.", "value": 8.15, "unit": "s⁻¹"}, {"measurement": "Km", "setting": "[8]", "value": 23, "unit": "µM"}, {"measurement": "kcat", "setting": "[8]", "value": 0.0048, "unit": "s⁻¹"}]}
{"molecule": "O=C(O)C=Cc1ccccc1", "note": "[cinnamic acid]", "values": [{"measurement": "binding observed in RsTAL crystals (in words)", "setting": "RsTAL", "value": "no significant binding"}]}
{"molecule": "N[C@@H](Cc1ccc(O)cc1)C(=O)O", "note": "[L-Tyr]", "values": [{"measurement": "Km", "setting": "[2]", "value": 2500, "unit": "µM"}, {"measurement": "kcat", "setting": "[2]", "value": 0.3, "unit": "s⁻¹"}, {"measurement": "Km better for L-Tyr as compared to L-Phe", "setting": "[1]; L-Tyr vs L-Phe", "value": 150, "unit": "fold"}, {"measurement": "kcat", "setting": "[1]; pH 8.5, 37° C.", "value": 4.32, "unit": "s⁻¹"}, {"measurement": "Km", "setting": "[4]", "value": 19, "unit": "µM"}, {"measurement": "kcat", "setting": "[4]", "value": 0.9, "unit": "s⁻¹"}, {"measurement": "Km", "setting": "[5]", "value": 15.6, "unit": "µM"}, {"measurement": "kcat", "setting": "[5]", "value": 27.7, "unit": "s⁻¹"}, {"measurement": "Km", "setting": "[6]", "value": 15.5, "unit": "µM"}, {"measurement": "kcat", "setting": "[6]", "value": 0.015, "unit": "s⁻¹"}, {"measurement": "activity with L-Tyr", "setting": "[7]", "value": "lacks activity"}]}
{"molecule": "NC1(P(=O)(O)O)Cc2ccccc2C1", "note": "[AIP, 2-aminoindan-2-phosphonate]", "values": [{"measurement": "inhibition of RsTAL activity by AIP (in words)", "setting": "wild type RsTAL; wild type RsTAL", "value": "weak inhibition"}, {"measurement": "effect of AIP on activity with L-Tyr (in words)", "setting": "wild type RsTAL; wild type RsTAL, substrate L-Tyr", "value": "unaffected"}, {"measurement": "Ki", "setting": "wild type RsTAL; wt RsTAL, substrate L-Phe, Dixon plot", "value": 16300, "unit": "nM"}, {"measurement": "Ki", "setting": "H89F RsTAL; H89F RsTAL, substrate L-Phe, Dixon plot", "value": 600, "unit": "nM"}, {"measurement": "Ki lower than for wild type RsTAL", "setting": "H89F RsTAL; H89F mutant with L-Phe versus wild type RsTAL", "value": 27, "unit": "fold"}, {"measurement": "Ki", "setting": "[9]", "value": 600, "unit": "nM"}, {"measurement": "Ki", "setting": "PcPAL", "value": 25, "unit": "nM"}, {"measurement": "Ki", "setting": "SmPAL", "value": 1810, "unit": "nM"}, {"measurement": "binding observed in RsTAL crystals (in words)", "setting": "RsTAL", "value": "no significant binding"}]}
{"molecule": "B1", "values": [{"measurement": "Km", "setting": "[10]", "value": 434, "unit": "µM"}]}
{"molecule": "B2", "values": [{"measurement": "Km", "setting": "[11]", "value": 74.2, "unit": "µM"}, {"measurement": "Km", "setting": "[12]", "value": 11400, "unit": "µM"}, {"measurement": "kcat", "setting": "[12]", "value": 13.1, "unit": "s⁻¹"}, {"measurement": "kcat/Km", "setting": "[12]", "value": 1100, "unit": "M⁻¹ s⁻¹"}]}
{"molecule": "B3", "values": [{"measurement": "increase in kcat/Km in comparison to wild type RsTAL", "setting": "[13]", "value": 17, "unit": "fold"}]}
